From the supplement of paper PMC11208160

Experiment: recombinant UMI read abundance after kanamycin selection (control-corrected) (log10(CPM+1)); higher = more efficient recombination; extreme values may be limits of the assay; sequences stand for … in AGTGCAGAGAAAATCGGCCAGTTTTCTCTGCCTGCAGTCCGCATGCCGTGGGACCCCTTGGGTTCTAACCTGTTGCCTAGATTTATGCAGCGGACTGCCTTTCTCCCAAAGTGATAAACCGG…AGGTTGGTTTCACT; site = the 11-nt donor
Procedure, shortened: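 In Escherichia coli, a pool of donor and donor-binding-loop pairs, each with a 12-nt UMI, was tested for the IS621 bridge recombinase. Plating was on IPTG (0.07 mM) plus kanamycin, or without selection, in two replicates. Recombinant UMIs were amplified by PCR across the donor–target junction and sequenced, and counts were reported as log10(CPM+1) after averaging and control-derived scaling.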
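Further: IS621 bridge recombinase in Escherichia coli cells against a fixed T5 target plasmid.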

Sequence | recombinant UMI read abundance (log10)
TGCCACCCATGGACCGGTTTTCCCGGTAATCCGTATTTGTT (site GGCCACCCTAA) | 0.00763
TGCCACCCATGGACCGGTTTTCCCGGTAATCCGTATTTGTT (site TGCCACCCTAA) | 0.0117
TGCCATGCATGGACCGGTTTTCCCGGTAATCCGTATTTGCC (site TGCCATGCTGG) | 0.0153
TGCCCAACATGGACCGGTTTTCCCGGTAATCCGTATTTGGT (site TGCCCAACTAC) | 0.06
TGCCCTGCATGGACCGGTTTTCCCGGTAATCCGTATTTGTT (site TGCCCTGCTAA) | 0.0362
TGCCTATCATGGACCGGTTTTCCCGGTAATCCGTATTTGTT (site TGCCTATCTAA) | 0.0105
TGCCTCGCATGGACCGGTTTTCCCGGTAATCCGTATTTGGG (site TGCCTCGCTCC) | 0.0166
TGCGAGCCATGGACCGGTTTTCCCGGTAATCCGTATTTGAA (site TGCGAGCCTTT) | 0.00414
TGCGAGGCATGGACCGGTTTTCCCGGTAATCCGTATTTGTA (site TGCGAGGCTTA) | 1.41
TGCGCTTCATGGACCGGTTTTCCCGGTAATCCGTATTTGGG (site TGCGCTTCTCC) | 0.0195
TGCGGACCATGGACCGGTTTTCCCGGTAATCCGTATTTGCA (site TGCGGACCTTG) | 0
TGCGGACCATGGACCGGTTTTCCCGGTAATCCGTATTTGCT (site TGCGGACCTAG) | 0.00621
TGCGTGACATGGACCGGTTTTCCCGGTAATCCGTATTTGAT (site TGCGTGACTAT) | 1.94
TGCGTGTCATGGACCGGTTTTCCCGGTAATCCGTATTTGCC (site TGCGTGTCTGG) | 2.33
TGCTATACATGGACCGGTTTTCCCGGTAATCCGTATTTGAT (site TGCTATACTAT) | 0.285
TGCTCAGCATGGACCGGTTTTCCCGGTAATCCGTATTTGTT (site TGCTCAGCTAA) | 0
TGCTCCCCATGGACCGGTTTTCCCGGTAATCCGTATTTGTA (site TGATCCCCTTA) | 0.0151
TGCTCCCCATGGACCGGTTTTCCCGGTAATCCGTATTTGTA (site TGCTCCCCTTA) | 0.00702
TGCTCCCCATGGACCGGTTTTCCCGGTAATCCGTATTTGTA (site TGGTCCCCTTA) | 0.00608

Sequence | recombinant UMI read abundance (log10)
TGCTCCCCATGGACCGGTTTTCCCGGTAATCCGTATTTGTA (site TGTTCCCCTTA) | 0.00224
TGCTCCGCATGGACCGGTTTTCCCGGTAATCCGTATTTGTG (site TGCTCCGCTCA) | 0.265
TGCTGCACATGGACCGGTTTTCCCGGTAATCCGTATTTGAA (site TGCTGCACTTT) | 0.0328
TGCTGCTCATGGACCGGTTTTCCCGGTAATCCGTATTTGGT (site TGCTGCTCTAC) | 0.182
TGCTTAGCATGGACCGGTTTTCCCGGTAATCCGTATTTGTC (site TGCTTAGCTGA) | 0
TGCTTGACATGGACCGGTTTTCCCGGTAATCCGTATTTGCT (site TACTTGACTAG) | 1.51
TGCTTGACATGGACCGGTTTTCCCGGTAATCCGTATTTGCT (site TCCTTGACTAG) | 0.0059
TGCTTGACATGGACCGGTTTTCCCGGTAATCCGTATTTGCT (site TGCTTGACTAG) | 0.922
TGCTTGACATGGACCGGTTTTCCCGGTAATCCGTATTTGCT (site TTCTTGACTAG) | 0.00367
TGCTTGACATGGACCGGTTTTCCCGGTAATCCGTATTTGGA (site TGCTTGACTTC) | 0.355
TGCTTGGCATGGACCGGTTTTCCCGGTAATCCGTATTTGAA (site TGCTTGGCTTT) | 0.485
TGCTTGGCATGGACCGGTTTTCCCGGTAATCCGTATTTGGT (site TGCTAGGCTAC) | 0.011
TGCTTGGCATGGACCGGTTTTCCCGGTAATCCGTATTTGGT (site TGCTCGGCTAC) | 0
TGCTTGGCATGGACCGGTTTTCCCGGTAATCCGTATTTGGT (site TGCTGGGCTAC) | 0.155
TGCTTGGCATGGACCGGTTTTCCCGGTAATCCGTATTTGGT (site TGCTTGGCTAC) | 0.0115
TGGAAAACATGGACCGGTTTTCCCGGTAATCCGTATTTGCA (site AGGAAGACTTG) | 0.218
TGGAAAACATGGACCGGTTTTCCCGGTAATCCGTATTTGCA (site TGGAAAACTTG) | 2.24
TGGACAGCATGGACCGGTTTTCCCGGTAATCCGTATTTGCT (site TGGACAGCTAG) | 2.26
TGGACATCATGGACCGGTTTTCCCGGTAATCCGTATTTGCT (site AGGACATCTAG) | 1.44

Sequence | recombinant UMI read abundance (log10)
TGGACATCATGGACCGGTTTTCCCGGTAATCCGTATTTGCT (site CGGACATCTAG) | 2.04
TGGACATCATGGACCGGTTTTCCCGGTAATCCGTATTTGCT (site GGGACATCTAG) | 0.348
TGGACATCATGGACCGGTTTTCCCGGTAATCCGTATTTGCT (site TGGACATCTAG) | 1.69
TGGACCACATGGACCGGTTTTCCCGGTAATCCGTATTTGAT (site TGGACCACTAT) | 0.721
TGGAGCGCATGGACCGGTTTTCCCGGTAATCCGTATTTGGG (site TGGAGCGCTCC) | 0.0132
TGGAGTTCATGGACCGGTTTTCCCGGTAATCCGTATTTGTA (site TGGAGTTCTTA) | 1.31
TGGATTTCATGGACCGGTTTTCCCGGTAATCCGTATTTGCA (site TGGATTTCTTG) | 0.673
TGGCATCCATGGACCGGTTTTCCCGGTAATCCGTATTTGTT (site CGGAATCCTAA) | 0
TGGCATCCATGGACCGGTTTTCCCGGTAATCCGTATTTGTT (site TGGCATCCTAA) | 0.165
TGGCCACCATGGACCGGTTTTCCCGGTAATCCGTATTTGTT (site TGGCCACCTAA) | 0.0258
TGGCCAGCATGGACCGGTTTTCCCGGTAATCCGTATTTGGC (site TGGCCAGCTGC) | 0
TGGCCAGCATGGACCGGTTTTCCCGGTAATCCGTATTTGGC (site TGGCCCGCTGC) | 0
TGGCCAGCATGGACCGGTTTTCCCGGTAATCCGTATTTGGC (site TGGCCGGCTGC) | 0
TGGCCAGCATGGACCGGTTTTCCCGGTAATCCGTATTTGGC (site TGGCCTGCTGC) | 0.017
TGGCCGACATGGACCGGTTTTCCCGGTAATCCGTATTTGGC (site TGGCCGACTGC) | 0
TGGCCGACATGGACCGGTTTTCCCGGTAATCCGTATTTGGC (site TGGCCGCCTGC) | 0
TGGCCGACATGGACCGGTTTTCCCGGTAATCCGTATTTGGC (site TGGCCGGCTGC) | 0.00648
TGGCCGACATGGACCGGTTTTCCCGGTAATCCGTATTTGGC (site TGGCCGTCTGC) | 0
TGGCCGGCATGGACCGGTTTTCCCGGTAATCCGTATTTGAC (site TGGCCGGCTGA) | 0.00628
